Laboratory results taken from PubChem BioAssay (NCI).
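These data come from cells grown in 96-well plates and exposed to compound for 48 hours at five concentrations. At the TGI there is no net growth.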

Experiments:
Test in all cases: NCI tumour cell line growth inhibition, 48 h
MCF7 breast = system: MCF7 breast
T-47D breast = system: T-47D breast
HL-60(TB) leukemia = system: HL-60(TB) leukemia
NCI-H522 lung = system: NCI-H522 lung
BT-549 breast = system: BT-549 breast
EKVX NSCLC = system: EKVX NSCLC
SF-539 CNS = system: SF-539 CNS
COLO 205 colon = system: COLO 205 colon
OVCAR-3 ovarian = system: OVCAR-3 ovarian
TK-10 renal = system: TK-10 renal
NCI/ADR-RES ovarian = system: NCI/ADR-RES ovarian
NCI-H460 lung = system: NCI-H460 lung
UACC-257 melanoma = system: UACC-257 melanoma
HCT-15 colon = system: HCT-15 colon
SK-OV-3 ovarian = system: SK-OV-3 ovarian
DU-145 prostate = system: DU-145 prostate
CCRF-CEM leukemia = system: CCRF-CEM leukemia
MALME-3M melanoma = system: MALME-3M melanoma
SF-295 CNS = system: SF-295 CNS
NCI-H23 lung = system: NCI-H23 lung
SK-MEL-28 melanoma = system: SK-MEL-28 melanoma
UO-31 renal = system: UO-31 renal
SNB-19 CNS = system: SNB-19 CNS
OVCAR-5 ovarian = system: OVCAR-5 ovarian
MDA-N = system: MDA-N
K-562 leukemia = system: K-562 leukemia
786-0 renal = system: 786-0 renal
SN12C renal = system: SN12C renal
HS 578T breast = system: HS 578T breast
HOP-62 NSCLC = system: HOP-62 NSCLC
MDA-MB-231 breast = system: MDA-MB-231 breast
MDA-MB-435 = system: MDA-MB-435
IGROV1 ovarian = system: IGROV1 ovarian
NCI-H226 lung = system: NCI-H226 lung
CAKI-1 renal = system: CAKI-1 renal
SK-MEL-5 melanoma = system: SK-MEL-5 melanoma
KM12 colon = system: KM12 colon
SNB-75 CNS = system: SNB-75 CNS
A498 renal = system: A498 renal
PC-3 prostate = system: PC-3 prostate
OVCAR-4 ovarian = system: OVCAR-4 ovarian
LOX IMVI melanoma = system: LOX IMVI melanoma
HCT-116 colon = system: HCT-116 colon
UACC-62 melanoma = system: UACC-62 melanoma
ACHN renal = system: ACHN renal
SR leukemia = system: SR leukemia
HT29 colon = system: HT29 colon
U251 CNS = system: U251 CNS
SK-MEL-2 melanoma = system: SK-MEL-2 melanoma
M14 melanoma = system: M14 melanoma
HCC-2998 colon = system: HCC-2998 colon
RPMI-8226 leukemia = system: RPMI-8226 leukemia
SF-268 CNS = system: SF-268 CNS
SW-620 colon = system: SW-620 colon
MOLT-4 leukemia = system: MOLT-4 leukemia
RXF 393 renal = system: RXF 393 renal
OVCAR-8 ovarian = system: OVCAR-8 ovarian
HOP-92 NSCLC = system: HOP-92 NSCLC
A549 NSCLC = system: A549 NSCLC

What does the source list for Cc1nc2ccccc2n1Cc1ccc(NC(=S)Nc2ccccc2)cc1?
TGI (MCF7 breast): > 100 µM; TGI (T-47D breast): > 100 µM; TGI (HL-60(TB) leukemia): > 100 µM; TGI (NCI-H522 lung): > 100 µM; TGI (BT-549 breast): > 100 µM; TGI (EKVX NSCLC): > 100 µM; TGI (SF-539 CNS): > 100 µM; TGI (COLO 205 colon): > 100 µM; TGI (OVCAR-3 ovarian): > 100 µM; TGI (TK-10 renal): > 100 µM; TGI (NCI/ADR-RES ovarian): > 100 µM; TGI (NCI-H460 lung): > 100 µM; TGI (UACC-257 melanoma): > 100 µM; TGI (HCT-15 colon): > 100 µM; TGI (SK-OV-3 ovarian): > 100 µM; TGI (DU-145 prostate): > 100 µM; TGI (CCRF-CEM leukemia): > 100 µM; TGI (MALME-3M melanoma): > 100 µM; TGI (SF-295 CNS): > 100 µM; TGI (NCI-H23 lung): > 100 µM; TGI (SK-MEL-28 melanoma): > 100 µM; TGI (UO-31 renal): > 100 µM; TGI (SNB-19 CNS): > 100 µM; TGI (OVCAR-5 ovarian): > 100 µM; TGI (MDA-N): > 100 µM; TGI (K-562 leukemia): > 100 µM; TGI (786-0 renal): > 100 µM; TGI (SN12C renal): > 100 µM; TGI (HS 578T breast): > 100 µM; TGI (HOP-62 NSCLC): > 100 µM; TGI (MDA-MB-231 breast): > 100 µM; TGI (MDA-MB-435): > 100 µM; TGI (IGROV1 ovarian): > 100 µM; TGI (NCI-H226 lung): > 100 µM; TGI (CAKI-1 renal): > 100 µM; TGI (SK-MEL-5 melanoma): 56.6 µM; TGI (KM12 colon): > 100 µM; TGI (SNB-75 CNS): > 100 µM; TGI (A498 renal): > 100 µM; TGI (PC-3 prostate): > 100 µM; TGI (OVCAR-4 ovarian): > 100 µM; TGI (LOX IMVI melanoma): > 100 µM; TGI (HCT-116 colon): > 100 µM; TGI (UACC-62 melanoma): > 100 µM; TGI (ACHN renal): > 100 µM; TGI (SR leukemia): > 100 µM; TGI (HT29 colon): > 100 µM; TGI (U251 CNS): > 100 µM; TGI (SK-MEL-2 melanoma): > 100 µM; TGI (M14 melanoma): > 100 µM; TGI (HCC-2998 colon): > 100 µM; TGI (RPMI-8226 leukemia): > 100 µM; TGI (SF-268 CNS): > 100 µM; TGI (SW-620 colon): > 100 µM; TGI (MOLT-4 leukemia): > 100 µM; TGI (RXF 393 renal): > 100 µM; TGI (OVCAR-8 ovarian): > 100 µM; TGI (HOP-92 NSCLC): > 100 µM; TGI (A549 NSCLC): > 100 µM

CC1=CC(O)CC(C)(C)C1/C=C/C(C)=C/C=C/C(C)=C/C=C/C=C(C)/C=C/C=C(C)/C=C/C1=C(C)CC(O)CC1(C)C (configuration not stated) was tested. Which TGI (MCF7 breast) did it give?
The TGI was 77.7 µM.

And the TGI (T-47D breast)?
Its TGI is 44.7 µM.

And the TGI (HL-60(TB) leukemia)?
The TGI was greater than 100 µM.

What about the TGI (NCI-H522 lung) of the same compound?
The TGI was 30 µM.

What about the TGI (BT-549 breast) of the same compound?
The TGI was 33.1 µM.

And the TGI (EKVX NSCLC)?
Its TGI is greater than 100 µM.

What about the TGI (COLO 205 colon) of the same compound?
The TGI was 38 µM.

What about the TGI (OVCAR-3 ovarian) of the same compound?
The TGI was 32.8 µM.

What about the TGI (TK-10 renal) of the same compound?
Its TGI is greater than 100 µM.

And the TGI (NCI/ADR-RES ovarian)?
Its TGI is 59.8 µM.

What about the TGI (NCI-H460 lung) of the same compound?
Its TGI is greater than 100 µM.

And the TGI (UACC-257 melanoma)?
Its TGI is 59.1 µM.

And the TGI (HCT-15 colon)?
The TGI was 34.4 µM.

And the TGI (SK-OV-3 ovarian)?
The TGI was greater than 100 µM.

And the TGI (DU-145 prostate)?
Its TGI is greater than 100 µM.

And the TGI (CCRF-CEM leukemia)?
Its TGI is greater than 100 µM.

What about the TGI (MALME-3M melanoma) of the same compound?
The TGI was 29 µM.

What about the TGI (SF-295 CNS) of the same compound?
Its TGI is 58.4 µM.

What about the TGI (NCI-H23 lung) of the same compound?
The TGI was 56.9 µM.

What about the TGI (SK-MEL-28 melanoma) of the same compound?
Its TGI is 31.4 µM.

And the TGI (UO-31 renal)?
The TGI was greater than 100 µM.

And the TGI (SNB-19 CNS)?
The TGI was greater than 100 µM.

And the TGI (OVCAR-5 ovarian)?
The TGI was 78.4 µM.

What about the TGI (MDA-N) of the same compound?
Its TGI is 37.8 µM.

What about the TGI (K-562 leukemia) of the same compound?
Its TGI is greater than 100 µM.

And the TGI (786-0 renal)?
The TGI was 36.7 µM.

What about the TGI (HS 578T breast) of the same compound?
Its TGI is greater than 100 µM.

What about the TGI (MDA-MB-231 breast) of the same compound?
The TGI was 30.1 µM.

What about the TGI (MDA-MB-435) of the same compound?
Its TGI is 33.9 µM.

What about the TGI (IGROV1 ovarian) of the same compound?
Its TGI is 66.3 µM.

What about the TGI (NCI-H226 lung) of the same compound?
The TGI was 41.4 µM.

What about the TGI (CAKI-1 renal) of the same compound?
Its TGI is 51.4 µM.

And the TGI (SK-MEL-5 melanoma)?
The TGI was 32.7 µM.

And the TGI (KM12 colon)?
The TGI was greater than 100 µM.

And the TGI (SNB-75 CNS)?
The TGI was greater than 100 µM.

And the TGI (PC-3 prostate)?
Its TGI is 62.6 µM.

And the TGI (OVCAR-4 ovarian)?
Its TGI is 66.9 µM.

And the TGI (LOX IMVI melanoma)?
Its TGI is greater than 100 µM.

What about the TGI (HCT-116 colon) of the same compound?
Its TGI is 30 µM.

What about the TGI (UACC-62 melanoma) of the same compound?
The TGI was 29.8 µM.

And the TGI (ACHN renal)?
Its TGI is 31.1 µM.

What about the TGI (SR leukemia) of the same compound?
Its TGI is greater than 100 µM.

What about the TGI (HT29 colon) of the same compound?
The TGI was 30.3 µM.

And the TGI (SK-MEL-2 melanoma)?
The TGI was 68.8 µM.

And the TGI (M14 melanoma)?
The TGI was 29.8 µM.

And the TGI (HCC-2998 colon)?
Its TGI is greater than 100 µM.

What about the TGI (RPMI-8226 leukemia) of the same compound?
The TGI was greater than 100 µM.

What about the TGI (SW-620 colon) of the same compound?
The TGI was 34.8 µM.

And the TGI (MOLT-4 leukemia)?
Its TGI is greater than 100 µM.

What about the TGI (RXF 393 renal) of the same compound?
Its TGI is 33.2 µM.

And the TGI (OVCAR-8 ovarian)?
Its TGI is 39.5 µM.

And the TGI (HOP-92 NSCLC)?
Its TGI is 41 µM.

What about the TGI (A549 NSCLC) of the same compound?
Its TGI is greater than 100 µM.
